US5883107A, “Arginine mimic derivatives as enzyme inhibitors” (Corvas International, Inc., priority 1995, dated 1999)
Read-outs that look alike come from different tables or passages of the source.

Assays:
trypsin = target: T1, trypsin (Bos taurus, UniProt P00760); assay: In vitro enzyme assay for specificity: trypsin; assay type: biochemical, bovine; details: 0.5 nM enzyme, 30 minute incubation, read-out: IC50 for inhibition of trypsin
T1 construct: bovine pancreatic trypsin; purchased Worthington Biochemical Corp. TRL3; host or cells: bovine pancreas
T1 sequence (P00760 24-246): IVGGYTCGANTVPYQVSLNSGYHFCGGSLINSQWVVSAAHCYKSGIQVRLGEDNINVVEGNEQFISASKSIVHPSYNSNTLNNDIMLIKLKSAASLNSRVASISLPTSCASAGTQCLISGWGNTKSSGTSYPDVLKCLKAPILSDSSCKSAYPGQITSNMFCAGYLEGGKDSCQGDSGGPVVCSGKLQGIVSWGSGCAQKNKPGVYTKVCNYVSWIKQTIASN
Description: Trypsin catalytic activity was determined using the chromogenic substrate, S-2222 (benzoyl-L-isoleucine-L-glutamic acid-[gamma-methyl ester]-L-arginine-p-nitroanilide), which was obtained from Kabi Diagnostica. […] Purified (3×-crystallized; TRL3) bovine pancreatic trypsin was obtained from Worthington Biochemical Corp. The enzyme was reconstituted in deionized water and diluted into HBSA prior to assay in which the final concentration was 0.5 nM.

[1] = tested on: thrombotic occlusion of the rat carotid artery; assay: Rat model of FeCl3-induced platelet-dependent arterial thrombosis; assay type: in vivo; details: iv, 1 h, read-out: ED50, dose that prevents complete thrombotic occlusion in 50% of animals tested
alpha-thrombin = alpha-thrombin (Homo sapiens, UniProt P00734); assay: In vitro enzyme assay for specificity: thrombin; assay type: biochemical; details: first of the two values in the cell (two isomeric pair), or the only value; 0.25 nM enzyme, 30 minute incubation; read-out: IC50 for inhibition of alpha-thrombin amidolytic activity
Description: The buffer used for all assays was HBSA (10 mM HEPES, pH 7.5, 150 mM sodium chloride, 0.1% bovine serum albumin). […] Following a 30 minute incubation at ambient temperature, 50 microliters of the substrate at the concentrations specified below, was added to the wells yielding a final total volume of 200 microliters.
Thrombin catalytic activity was determined using the chromogenic substrate Pefachrome t-PA (CH3 SO2 -D-hexahydrotyrosine-glycyl-L-arginine-p-nitroanilide, obtained from Pentapharm Ltd.).

[2] = tested on: trypsin, plasmin and kallikrein; details: literature; cited from earlier work
[3] = literature; cited from earlier work
[4] = literature; cited from earlier work; remark: listed apart in the source
thrombin = details: cited from earlier work
thrombosis = details: literature; cited from earlier work
[5] = tested on: atherosclerotic rabbit femoral artery; details: following mechanical damage; literature; cited from earlier work
[6] = first of the two values in the cell (two isomeric pair), or the only value

Q: Which IC50 (trypsin; [6]) does the source give for `CCCC(CCC)C(=O)N[C@@H](CC(=O)OC)C(=O)N1CCC[C@H]1C(=O)N[C@@H](C=O)CC1CCCN(C(=N)N)C1` (single isomer, unassigned) [Isomer 11B(D)] here?
A: 2590 nM

Q: For `CCCC(CCC)C(=O)N[C@@H](CC(=O)OC)C(=O)N1CCC[C@H]1C(=O)N[C@H](C=O)CC1CCCN(C(=N)N)C1` (single isomer, unassigned) [Isomer 11B, alpha-N-(propylpentanoyl)-aspartyl(beta-methyl ester)-prolyl-3-[3-piperidyl-(N-guanidino)]-L-alaninal], which ED50 [1] is on record?
A: 5 mg/kg

Q: What about the IC50 (trypsin; [6]) of the same compound?
A: 67 nM

Q: And the IC50 (trypsin; second of the two values in the cell (two isomeric pair))?
A: 113 nM

Q: For `CCCC(CCC)C(=O)N[C@@H](Cc1nnn[nH]1)C(=O)N1CCC[C@H]1C(=O)N[C@H](C=O)CC1CCCN(C(=N)N)C1` (single isomer, unassigned) [Isomer 19B], which IC50 (trypsin; [6]) is on record?
A: 150 nM

Q: What about the IC50 (alpha-thrombin) of the same compound?
A: 3.11 nM

Q: For `N=C(N)c1ccc(CC(=O)C(=O)O)cc1` [APPA, 4-amidinophenylpyruvic acid], which “selectivity (in words)” value [2] is on record?
A: non-selective, inhibiting trypsin, plasmin and kallikrein

Q: What about the “toxicity (in words)” value [3] of the same compound?
A: low toxicity

Q: What about the “pharmacokinetics (in words)” value [4] of the same compound?
A: favourable pharmacokinetics

Q: With `CC(=O)N[C@H](Cc1ccccc1)C(=O)N1CCC[C@H]1C(=O)N[C@@H](CCCNC(=N)N)B(O)O` [Ac-(D-Phe)-Pro-boroArg, acetyl-D-phenylalanyl-prolyl-boroarginine] as the compound, how does the “inhibition of thrombin (in words)” value (thrombin; literature) read?
A: inhibit thrombin by directly binding to the active site

Q: For `CC1CNc2c(cccc2S(=O)(=O)N[C@@H](CCCNC(=N)N)C(=O)N2CC[C@@H](C)C[C@@H]2C(=O)O)C1` (stereo partly drawn) [Argatroban, 2R,4R-4-methyl-1-[N-2-(3-methyl-1,2,3,4-tetrahydro-8-quinolinesulfonyl)-L-argininal]-2-piperdinecarboxylic acid], which “antithrombotic effect (in words)” value (thrombosis) is on record?
A: potent antithrombotic agent in several experimental models of acute arterial thrombosis

Q: And the “inhibition of thrombin (in words)” value (thrombin)?
A: bind directly to the active site of thrombin

Q: For `N=C(N)NCCC[C@@H](C=O)NC(=O)[C@@H]1CCCN1C(=O)[C@H](N)Cc1ccccc1` [D-Phe-Pro-Arg-a1, D-phenylalanyl-prolyl-argininal], which “inhibition of thrombin (in words)” value (thrombin) is on record?
A: inhibit thrombin by directly binding to the active site

Q: For `CS(=O)(=O)O.CS(=O)(=O)O.N=C(N)Nc1ccc(C(=O)Oc2ccc3cc(C(=N)N)ccc3c2)cc1` [FUT 175, 6-amidino-2-naphthyl-4-guanidinobenzoate dimethanesulfonate], which “selectivity (in words)” value [2] is on record?
A: non-selective

Q: For `N=C(N)NCCC[C@H](NC(=O)[C@@H]1CCCN1C(=O)[C@H](N)Cc1ccccc1)C(=O)CCl` [P-PACK, D-phenylalanyl-prolyl-arginine-chloromethyl ketone], which “inhibition of thrombin (in words)” value (thrombin) is on record?
A: inhibit thrombin by directly binding to the active site

Q: Which results are given for Hirudin?
A: smooth muscle proliferation and restenosis (in words) [5]: effectively inhibit smooth muscle proliferation and the associated restenosis; antithrombotic effect (in words) (thrombosis): potent antithrombotic agent in vivo; inhibition of thrombin (in words) (thrombin; literature): one of the most potent inhibitors of thrombin known
